Common to all, as to format: biochemical
For one assay, the target named is T1, PDE1B (Homo sapiens, UniProt Q01064).
T1 construct: purchased Reaction Biology Corporation, Malvern, Pa
In words: Phosphodiesterase enzyme screening assay, PDE1B. An excerpt: (§1) Compounds of the invention were screened against PDE1A, PDE1B, PDE2A, PDE3A, PDE3B, PDE4A1A, PDE4B1, PDE4D3, PDE5A1, PDE6C, PDE7A, PDE8A1, PDE9A2, PDE10A2 AND PDE11A isoforms of the phosphodiesterase enzyme to determine activity and overall selectivity through comparative analysis. […] Where 8-methoxy-IBMX and Zaprinast were used as reference inhibitors.
(§2) The phosphodiesterase enzyme isoforms were obtained from a commercial retailer (Reaction Biology Corporation, Malvern, Pa.) for use in the instant screening assay.
(§3) The analysis was completed using the Caliper LabChip 3000 and a 12-sipper LabChip. LabChip assays are separations-based, meaning that the product and substrate are electrophoretically separated, thereby minimizing interferences and yielding the highest data quality available on any screening platform. […] High Z′ values, few false positives, few false negatives and analytical quality reproducibility are the reasons cited for the increasing reliance on the LabChip assays.
(§4) The off-chip incubation mobility-shift phosphodiesterase assay uses a microfluidic chip to measure the conversion of a fluorescent cyclic AMP substrate to a 5′-AMP product, or a cyclic GMP substrate to a 5′-GMP product. The reaction mixture, from a microtiter plate well, is introduced through a capillary sipper onto the chip, where the fluorescent substrate and product are separated by electrophoresis and detected via laser-induced fluorescence. […] The precision of microfluidics allows researchers to detect subtle interactions between drug candidates and therapeutic targets.
(§5) Reactions were carried out in 100 mM HEPES (pH 7.5), 5 mM MgCl2, 1 mM DTT, 0.003% Brij, 4.0 μM cGMP substrate. The reaction was started by addition of cGMP or cAMP and incubated for 1 hour at R.T. The reaction was terminated by the addition of stop buffer containing 100 mM HEPES (pH 7.5), 15 mM EDTA, 0.015% Brij-35, 5% DMSO. Cyclic AMP/GMP substrate and 5′-AMP/5′-GMP product were separated by charge using electrophoretic mobility shift. Product formed was compared to control wells to determine inhibition or enhancement of enzyme activity.
(§6) Data points were averages of quadruplicate wells and error bars represented the SEM for each point.

The target of another assay is T2, PDE9A2 (Homo sapiens, UniProt O76083).
T2 construct: purchased Reaction Biology Corporation, Malvern, Pa
T2 sequence (O76083 1-533 isoform O76083-2): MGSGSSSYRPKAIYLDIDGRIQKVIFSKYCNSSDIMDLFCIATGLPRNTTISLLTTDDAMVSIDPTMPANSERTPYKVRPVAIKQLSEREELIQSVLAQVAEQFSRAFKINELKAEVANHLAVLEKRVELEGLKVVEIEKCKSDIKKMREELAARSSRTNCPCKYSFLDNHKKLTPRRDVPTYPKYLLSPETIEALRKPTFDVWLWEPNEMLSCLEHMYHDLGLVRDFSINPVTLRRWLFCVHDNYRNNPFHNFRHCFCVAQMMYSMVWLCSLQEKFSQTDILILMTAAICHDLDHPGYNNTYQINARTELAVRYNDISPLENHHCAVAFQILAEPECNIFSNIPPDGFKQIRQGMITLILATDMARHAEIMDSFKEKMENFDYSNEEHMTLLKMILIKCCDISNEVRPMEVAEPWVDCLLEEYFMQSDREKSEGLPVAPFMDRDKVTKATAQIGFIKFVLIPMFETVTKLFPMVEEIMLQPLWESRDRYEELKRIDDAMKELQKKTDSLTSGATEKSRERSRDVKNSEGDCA
In words: Phosphodiesterase enzyme screening assay, PDE9A2. The settings on record: 4.0 μM cGMP substrate, 1 hour at R.T., read-out: Band (PDE9A2 IC50). A digest of the protocol:
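Microfluidic mobility-shift assay; values from quadruplicate wells relative to controls. Conditions: 4.0 μM cGMP, 5 mM MgCl2, pH 7.5 HEPES, 1 h R.T., EDTA stop.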

In the next assay the target is T3, PDE1A (Homo sapiens, UniProt P54750).
T3 construct: purchased Reaction Biology Corporation, Malvern, Pa
T3 sequence (P54750 whole entry): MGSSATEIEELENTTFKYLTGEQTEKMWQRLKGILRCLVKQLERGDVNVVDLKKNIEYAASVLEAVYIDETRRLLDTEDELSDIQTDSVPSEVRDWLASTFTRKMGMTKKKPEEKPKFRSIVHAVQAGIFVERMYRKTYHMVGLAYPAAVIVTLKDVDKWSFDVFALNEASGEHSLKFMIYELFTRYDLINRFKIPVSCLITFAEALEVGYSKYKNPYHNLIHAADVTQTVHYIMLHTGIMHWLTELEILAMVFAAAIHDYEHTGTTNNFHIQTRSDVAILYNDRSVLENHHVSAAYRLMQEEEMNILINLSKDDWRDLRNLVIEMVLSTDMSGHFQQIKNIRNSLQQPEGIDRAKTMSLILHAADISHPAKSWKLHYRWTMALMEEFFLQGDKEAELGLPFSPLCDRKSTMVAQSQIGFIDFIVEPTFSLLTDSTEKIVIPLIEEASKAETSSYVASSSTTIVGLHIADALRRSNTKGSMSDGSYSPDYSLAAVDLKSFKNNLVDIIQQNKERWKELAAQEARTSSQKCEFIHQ
Nature of the assay: Phosphodiesterase enzyme screening assay, PDE1A.
From the text: as §1, §2, §3, §4, §5, §6

The mark [1] stands for this setting: Table 1, ratio of IC50 values, value greater than 1 indicates greater selectivity for PDE9A2.

pIC50: −log10 of the molar value. Read-outs that look alike come from different tables or passages of the source.

This note sets out measurements from US9969742B2, “Imidazotriazinone compounds” (Ironwood Pharmaceuticals, Inc., priority 2012, dated 2018).

T1 sequence (Q01064 whole entry): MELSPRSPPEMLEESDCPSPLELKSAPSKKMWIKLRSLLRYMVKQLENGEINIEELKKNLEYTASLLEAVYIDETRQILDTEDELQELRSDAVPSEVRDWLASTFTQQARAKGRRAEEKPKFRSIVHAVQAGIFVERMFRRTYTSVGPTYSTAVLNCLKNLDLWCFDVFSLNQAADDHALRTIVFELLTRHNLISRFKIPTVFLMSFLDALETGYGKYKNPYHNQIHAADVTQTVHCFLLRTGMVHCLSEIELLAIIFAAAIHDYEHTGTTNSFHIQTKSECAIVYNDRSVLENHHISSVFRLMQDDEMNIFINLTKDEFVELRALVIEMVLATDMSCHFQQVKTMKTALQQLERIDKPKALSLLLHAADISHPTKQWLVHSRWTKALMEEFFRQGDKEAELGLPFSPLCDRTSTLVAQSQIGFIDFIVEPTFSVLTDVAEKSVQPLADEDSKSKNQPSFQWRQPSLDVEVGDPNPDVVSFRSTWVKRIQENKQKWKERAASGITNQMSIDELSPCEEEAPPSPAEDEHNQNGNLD

For the compound `C[C@@H]1CN(Cc2cn3ncccc3n2)C[C@H]1c1nn2c(C3CCOCC3)ncc2c(=O)[nH]1` (relative stereo) [(+)-2-((3,4-trans)-1-(imidazo[1,2-b]pyridazin-2-ylmethyl)-4-methylpyrrolidin-3-yl)-7-(tetrahydro-2H-pyran-4-yl)imidazo[5,1-f][1,2,4]triazin-4(3H)-one], the “PDE1B selectivity (versus PDE9A2)” value on PDE1B (setting [1]) is 1413. Further, the pIC50 on PDE9A2 (Table 1, 10 concentrations) is > 6.00. The “PDE1A selectivity (versus PDE9A2)” value on PDE1A (setting [1]) is recorded as 1005.

In the case of `C[C@@H]1CN(Cc2ncccn2)C[C@H]1c1nn2c(C3CCOCC3)ncc2c(=O)[nH]1` (relative stereo) [(+)-2-((3,4-trans)-4-, (+)-2-((3,4-trans)-4-methyl-1-(pyrimidin-2-ylmethyl)pyrrolidin-3-yl)-7-(tetrahydro-2H-pyran-4-yl)imidazo[5,1-f][1,2,4]triazin-4(3H)-one], on PDE1B (ratio of IC50 values, PDE1B versus PDE9A2, value greater than 1 = greater selectivity for PDE9A2), the “PDE1B selectivity (versus PDE9A2)” value was 456. In addition, the pIC50 at PDE9A2 (Table 3) was > 6.00. Further, the “PDE1A selectivity (versus PDE9A2)” value at PDE1A (ratio of IC50 values, PDE1A versus PDE9A2, value greater than 1 = greater selectivity for PDE9A2) is on record as 214.

As for `C[C@@H]1CN(Cc2ccc3cccnc3c2)C[C@H]1c1nn2c(C3CCOCC3)ncc2c(=O)[nH]1` (relative stereo) [(+)-2-((3,4-trans)-4-methyl-1-(quinolin-7-ylmethyl)pyrrolidin-3-yl)-7-(tetrahydro-2H-pyran-4-yl)imidazo[5,1-f][1,2,4]triazin-4(3H)-one], at PDE1B (setting [1]), the “PDE1B selectivity (versus PDE9A2)” value was determined as 5180. For the same compound, the pIC50 on PDE9A2 (Table 1, 10 concentrations) was > 6.00. Also, on PDE1A (setting [1]), the “PDE1A selectivity (versus PDE9A2)” value came to 5020.

With `CC1CN(Cc2cccc(Cl)c2Cl)CC1c1nn2c(C3CCOCC3)ncc2c(=O)[nH]1` (single isomer, unassigned; (+)) [(+)-2-((3,4-trans)-1-(2,3-dichlorobenzyl)-4-methylpyrrolidin-3-yl)-7-(tetrahydro-2H-pyran-4-yl)imidazo[5,1-f][1,2,4]triazin-4(3H)-one], the “PDE1B selectivity (versus PDE9A2)” value at PDE1B (ratio of IC50 values PDE1B / PDE9A2, value greater than 1 = greater selectivity for PDE9A2) is reported as 199. Moreover, the pIC50 on PDE9A2 is > 6.00. Further, on PDE1A (ratio of IC50 values PDE1A / PDE9A2, value greater than 1 = greater selectivity for PDE9A2), the “PDE1A selectivity (versus PDE9A2)” value came out at 195.

Take `CC1CN(Cc2cccc(F)c2F)CC1c1nn2c(C3CCOCC3)ncc2c(=O)[nH]1` (single isomer, unassigned; (+)) [(+)-2-((3,4-trans)-1-(2,3-difluorobenzyl)-4-methylpyrrolidin-3-yl)-7-(tetrahydro-2H-pyran-4-yl)imidazo[5,1-f][1,2,4]triazin-4(3H)-one]: the “PDE1B selectivity (versus PDE9A2)” value on PDE1B (setting [1]) was determined as 218. Moreover, the negative logarithm of the IC50 (pIC50) on PDE9A2 (Table 1, 10 concentrations) was > 6.00. Also, the “PDE1A selectivity (versus PDE9A2)” value at PDE1A (setting [1]) is 159.

Consider `CC1CN(Cc2ccc(Cl)cc2Cl)CC1c1nn2c(C3CCOCC3)ncc2c(=O)[nH]1` (single isomer, unassigned; (+)) [(+)-2-((3,4-trans)-1-(2,4-dichlorobenzyl)-4-methylpyrrolidin-3-yl)-7-(tetrahydro-2H-pyran-4-yl)imidazo[5,1-f][1,2,4]triazin-4(3H)-one], for which, at PDE1B (setting [1]), the “PDE1B selectivity (versus PDE9A2)” value was 994. Besides, the pIC50 on PDE9A2 (Table 1, 10 concentrations) was > 6.00. In addition, the “PDE1A selectivity (versus PDE9A2)” value at PDE1A (setting [1]) came to 598.

As to `CC1CN(Cc2cc(Cl)ccc2Cl)CC1c1nn2c(C3CCOCC3)ncc2c(=O)[nH]1` (single isomer, unassigned; (+)) [(+)-2-((3,4-trans)-1-(2,5-dichlorobenzyl)-4-methylpyrrolidin-3-yl)-7-(tetrahydro-2H-pyran-4-yl)imidazo[5,1-f][1,2,4]triazin-4(3H)-one], the “PDE1B selectivity (versus PDE9A2)” value at PDE1B (setting [1]) is listed as 90. The pIC50 at PDE9A2 (Table 1, 10 concentrations) was > 6.00. Moreover, the “PDE1A selectivity (versus PDE9A2)” value on PDE1A (setting [1]) is 274.

As for `CC1CN(Cc2ncccn2)CC1c1nn2c(C3CCOC3)ncc2c(=O)[nH]1` (single isomer, unassigned; (+)) [(+)-2-((3,4-trans)-4-methyl-1-(pyrimidin-2-ylmethyl)pyrrolid] [(+)-2-((3,4-trans)-4-methyl-1-(pyrimidin-2-ylmethyl)pyrrolidin-3-yl)-7-(tetrahydrofuran-3-yl)imidazo[5,1-f][1,2,4]triazin-4(3H)-one], the “PDE1B selectivity (versus PDE9A2)” value on PDE1B (setting [1]) is recorded as 58. The “PDE1A selectivity (versus PDE9A2)” value at PDE1A (setting [1]) was 28.

For `CC1CN(Cc2ncc3ccccc3n2)CC1c1nn2c(C3CCOCC3)ncc2c(=O)[nH]1` (single isomer, unassigned; (+)) [(+)-2-((3,4-trans)-4-methyl-1-(quinazolin-2-ylmethyl)pyrroli] [(+)-2-((3,4-trans)-4-methyl-1-(quinazolin-2-ylmethyl)pyrrolidin-3-yl)-7-(tetrahydro-2H-pyran-4-yl)imidazo[5,1-f][1,2,4]triazin-4(3H)-one], the “PDE1B selectivity (versus PDE9A2)” value at PDE1B (setting [1]) came to 1360. Besides, the “PDE1A selectivity (versus PDE9A2)” value at PDE1A (setting [1]) is on record as 973.

In the case of `CC(=O)N1CCC(c2ncc3c(=O)[nH]c(C4CN(Cc5ccccc5)CC4C)nn23)CC1` (single isomer, unassigned; (+)) [(+)-7-(1-acetylpiperidin-4-yl)-2-((3,4-trans)-1-benzyl-4-methylpyrrolidin-3-yl)imidazo[5,1-f][1,2,4]triazin-4(3H)-one], the “PDE1B selectivity (versus PDE9A2)” value on PDE1B (setting [1]) was found to be 232. In addition, the “PDE1A selectivity (versus PDE9A2)” value at PDE1A (setting [1]) is reported as 177.

As to `CC1CN(Cc2ncccn2)CC1c1nn2c(C3CCC(F)(F)CC3)ncc2c(=O)[nH]1` (single isomer, unassigned; (+)) [(+)-7-(4,4-difluorocyclohexyl)-2-((3,4-trans)-4-methyl-1-(pyrimidin-2-ylmethyl)pyrrolidin-3-yl)imidazo[5,1-f][1,2,4]triazin-4(3H)-one], at PDE1B (setting [1]), the “PDE1B selectivity (versus PDE9A2)” value is 313. The “PDE1A selectivity (versus PDE9A2)” value at PDE1A (setting [1]) is 165.

Consider `Cc1ccc(F)cc1-c1ncc2c(=O)[nH]c(C3CN(Cc4ncccn4)CC3C)nn12` (single isomer, unassigned; (+)) [(+)-7-(5-fluoro-2-methylphenyl)-2-((3,4-trans)-4-methyl-1-(p] [(+)-7-(5-fluoro-2-methylphenyl)-2-((3,4-trans)-4-methyl-1-(pyrimidin-2-ylmethyl)pyrrolidin-3-yl)imidazo[1,5-f][1,2,4]triazin-4(3H)-one], for which, at PDE1B (setting [1]), the “PDE1B selectivity (versus PDE9A2)” value was found to be 102. Further, at PDE1A (setting [1]), the “PDE1A selectivity (versus PDE9A2)” value came out at 158.

Take `CC1CN(Cc2cccc(F)c2)CC1c1nn2c(C3CCOCC3)ncc2c(=O)[nH]1` (single isomer, unassigned; (-)) [(−)-2-((3,4-trans)-1-(3-fluorobenzyl)-4-methylpyrrolidin-3-yl)-7-(tetrahydro-2H-pyran-4-yl)imidazo[5,1-f][1,2,4]triazin-4(3H)-one]: the “PDE1B selectivity (versus PDE9A2)” value at PDE1B (setting [1]) stood at 1140. Moreover, the “PDE1A selectivity (versus PDE9A2)” value on PDE1A (setting [1]) is on record as 1110.

Regarding `CC1CN(C(=O)c2ccc(F)cc2)CC1c1nn2c(C3CCOCC3)ncc2c(=O)[nH]1` (single isomer, unassigned; (-)) [(−)-2-((3,4-trans)-1-(4-fluorobenzoyl)-4-methylpyrrolidin-3-] [(−)-2-((3,4-trans)-1-(4-fluorobenzoyl)-4-methylpyrrolidin-3-yl)-7-(tetrahydro-2H-pyran-4-yl)imidazo[5,1-f][1,2,4]triazin-4(3H)-one], at PDE1B (setting [1]), the “PDE1B selectivity (versus PDE9A2)” value came to 23. Also, the “PDE1A selectivity (versus PDE9A2)” value at PDE1A (setting [1]) is 12.

For `CC1CN(C(=O)c2ccccc2)CC1c1nn2c(C3CCOCC3)ncc2c(=O)[nH]1` (single isomer, unassigned; (-)) [(−)-2-((3,4-trans)-1-benzoyl-4-methylpyrrolidin-3-yl)-7-(tet] [(−)-2-((3,4-trans)-1-benzoyl-4-methylpyrrolidin-3-yl)-7-(tetrahydro-2H-pyran-4-yl)imidazo[5,1-f][1,2,4]triazin-4(3H)-one], at PDE1B (setting [1]), the “PDE1B selectivity (versus PDE9A2)” value was 32. In addition, the “PDE1A selectivity (versus PDE9A2)” value at PDE1A (setting [1]) came out at 26.

Consider `Cc1cc(F)ccc1-c1ncc2c(=O)[nH]c(C3CN(Cc4ncccn4)CC3C)nn12` (single isomer, unassigned; (-)) [(−)-7-(4-fluoro-2-methylphenyl)-2-((3,4-trans)-4-methyl-1-(pyrimidin-2-ylmethyl)pyrrolidin-3-yl)imidazo[5,1-f][1,2,4]triazin-4(3H)-one], for which the “PDE1B selectivity (versus PDE9A2)” value at PDE1B (setting [1]) is given as 175. Moreover, the “PDE1A selectivity (versus PDE9A2)” value at PDE1A (setting [1]) came out at 132.
